Reference: patent US20080227813A1, “Pharmaceutical compositions and methods for treating diseases associated with neurodegeneration” (priority 2006, published 2008)
Like-named read-outs stand apart in the source and are kept apart here.

Tests used:
[1] = human, in vivo
[2] = dog, in vivo, po
Procedure: Four animals of both sexes/groups were used, except the control and high dose group where the groups were completed with 2 recovery animals in both sexes.
The check of mortality and the clinical observations were performed twice daily, the weighing of non-consumed food was done daily. The body weight of the animals was measured once a week. The urine, hematological, clinical chemical and ECG investigations were performed before the first treatment day and at termination of the treatment and at the end of the recovery period. The blood samples for kinetic analysis were taken in the 2nd and in the 104th, 110th and 111th treatment days. The opthalmoscopic examinations were performed prior to the treatment, at termination of the treatment and at the end of the recovery period. Terminally gross necropsy and histopathological examinations were performed in all animals.

[3] = test system: CRL(:WI)BR rats; assay: 28-day repeated dose oral toxicity study in rats; assay type: in vivo, rat; details: for No observed adverse effect level (NOAEL): rat male and female, 28-day oral
Procedure: To assess recovery post treatment, an additional 5 males and females were included in both the control and highest dosage groups. Treatment was carried out by gavage once daily. Control animals were treated with physiologic saline in the same way.
Pre-treatment: general condition and behavior activity patterns were observed. Also in a subgroup of 5 male and 5 female animals, hematological and clinical chemistry tests were performed.
During the treatment period and following a two-week recovery period the clinical observations were made daily. At weekly intervals body weight and food consumption were measured.
At the end of the treatment, hematological, clinical chemistry evaluation and gross necropsy with organ weight assessment were conducted. […] In addition, the liver and kidneys and the organs showing macroscopic changes were examined microscopically in the low and middle dose groups, too.

[4] = test system: Beagle dogs; assay: 110-day repeated dose oral toxicity study in dogs; assay type: in vivo, dog
Procedure: Evaluation […] involving control and three dose groups of 50, 80 and 160 mg/kg/day (equal to 31.0 mg/kg, 49.6 mg/kg and 99.2 mg/kg free base).

[5] = test system: rat hepatocytes
[6] = test system: healthy young male subjects; details: human, single oral doses 50-800 mg
Procedure: The study was conducted in 12 volunteers, in accordance with the Helsinski Declaration, European Good Clinical Practices and Huriet law. The volunteers were divided into two groups (n=6 in each group).
The dose was administered orally, under medical supervision, after a 10 h abstinence from food. No concomitant medication was allowed within the period of time from the screening examination to 24 h after the last administration.

[7] = dog, 50, 80, 160 mg/kg/day oral

## [O-][n+]1cccc(/C(Cl)=N/OC[C@H](O)CN2CCCCC2)c1 [Compound I, N-[2-hydroxy-3-(1-piperidinyl)-propoxy]-pyridine-1-oxide-3-carboximidoyl chloride]
[1]
  route of removal: mostly removed unchanged in urine
[1]; po
  Mean t1/2 values: 2.5 to 6.2 h
  Tmax values: 0.5 to 1.1 h
  t1/2: 4 h
[1]; po, 50 mg
  AUC(0-t), GeoMean: 590 ng·h/mL
  AUC(0-t), Mean: 600 ng·h/mL
  AUC, GeoMean: 640 ng·h/mL
  AUC, Mean: 650 ng·h/mL
  Cmax, GeoMean: 160 ng/mL
  Cmax, Mean: 170 ng/mL
  MRT, GeoMean: 3.4 h
  MRT, Mean: 3.5 h
  Tmax, GeoMean: 0.82 h
  Tmax, Mean: 0.9 h
  t½, GeoMean: 3 h
  t½, Mean: 3.1 h
[1]; po, 100 mg
  AUC(0-t), GeoMean: 1400 ng·h/mL
  AUC(0-t), Mean: 1400 ng·h/mL
  AUC, GeoMean: 1600 ng·h/mL
  AUC, Mean: 1600 ng·h/mL
  Cmax, GeoMean: 390 ng/mL
  Cmax, Mean: 400 ng/mL
  MRT, GeoMean: 3.7 h
  MRT, Mean: 3.8 h
  Tmax, GeoMean: 1 h
  Tmax, Mean: 1.1 h
  t½, GeoMean: 3.5 h
  t½, Mean: 3.7 h
[1]; po, 200 mg
  AUC(0-t), GeoMean: 2700 ng·h/mL
  AUC(0-t), Mean: 2700 ng·h/mL
  AUC, GeoMean: 2800 ng·h/mL
  AUC, Mean: 2800 ng·h/mL
  Cmax, GeoMean: 890 ng/mL
  Cmax, Mean: 890 ng/mL
  MRT, GeoMean: 3.7 h
  MRT, Mean: 3.8 h
  Tmax, GeoMean: 0.82 h
  Tmax, Mean: 0.9 h
  t½, GeoMean: 3.1 h
  t½, Mean: 3.1 h
[1]; po, 400 mg
  AUC(0-t), GeoMean: 6200 ng·h/mL
  AUC(0-t), Mean: 6300 ng·h/mL
  AUC, GeoMean: 6300 ng·h/mL
  AUC, Mean: 6400 ng·h/mL
  Cmax, GeoMean: 1800 ng/mL
  Cmax, Mean: 1800 ng/mL
  MRT, GeoMean: 4.5 h
  MRT, Mean: 4.5 h
  Tmax, GeoMean: 0.82 h
  Tmax, Mean: 0.9 h
  t½, GeoMean: 4 h
  t½, Mean: 4.1 h
[1]; po, 600 mg
  AUC(0-t), GeoMean: 8900 ng·h/mL
  AUC(0-t), Mean: 9100 ng·h/mL
  AUC, GeoMean: 9000 ng·h/mL
  AUC, Mean: 9200 ng·h/mL
  Cmax, GeoMean: 2900 ng/mL
  Cmax, Mean: 3000 ng/mL
  MRT, GeoMean: 3.9 h
  MRT, Mean: 4 h
  Tmax, GeoMean: 0.5 h
  Tmax, Mean: 0.5 h
  t½, GeoMean: 4.2 h
  t½, Mean: 4.3 h
[1]; po, 800 mg
  AUC(0-t), GeoMean: 12000 ng·h/mL
  AUC(0-t), Mean: 12000 ng·h/mL
  AUC, GeoMean: 12000 ng·h/mL
  AUC, Mean: 12000 ng·h/mL
  Cmax, GeoMean: 3700 ng/mL
  Cmax, Mean: 3800 ng/mL
  MRT, GeoMean: 4.1 h
  MRT, Mean: 4.1 h
  Tmax, GeoMean: 0.76 h
  Tmax, Mean: 0.8 h
  t½, GeoMean: 3.4 h
  t½, Mean: 3.5 h
[2]; 50 mg/kg/day
  AUCtot: 40220 ng·h/mL
  Cmax: 10840 ng/mL
  MRT: 3.78 h
  Tmax: 1.78 h
  clearance: 13 mL/min/kg
  t½: 1.89 h
[2]; 80 mg/kg/day
  AUCtot: 87010 ng·h/mL
  Cmax: 22000 ng/mL
  MRT: 4.04 h
  Tmax: 1.88 h
  clearance: 9.5 mL/min/kg
  t½: 2.10 h
[2]; 160 mg/kg/day
  AUCtot: 166390 ng·h/mL
  Cmax: 37950 ng/mL
  MRT: 4.57 h
  Tmax: 1.94 h
  clearance: 10.3 mL/min/kg
  t½: 2.44 h
[3]; by base
  No observed adverse effect level (NOAEL): 233 mg/kg/day
[3]; by citrate
  No observed adverse effect level (NOAEL): 375 mg/kg/day
[3]; rat, 375, 750, 1500 mg/kg/day oral, 28 days
  mortality: No deaths occurred
[4]; [7]
  ECG and ophthalmological alterations: No ECG and opthalmological alterations
  mortality: No animals died
[4]; dog, both sexes, oral once daily for 112 days
  NOEL: 50 mg/kg/day
[5]
  amount of metabolite No. 1: 0.32 % of the total radioactivity
  amount of metabolite No. 2: 1.89 % of the total radioactivity
  amount of metabolite No. 3: 47.7 % of the total radioactivity
  amount of metabolite No. 4: 15.1 % of the total radioactivity
[5]; rat, hepatocytes
  clearance: 0.84 mL/h
  t1/2: 0.82 h
[6]
  changes in safety parameters (laboratory parameters, vital signs, ECGs): No changes in any safety parameters
  serious adverse events or deaths: no serious adverse events or deaths
